Paper PMC8494914, “Elexacaftor is a CFTR potentiator and acts synergistically with ivacaftor during acute and chronic treatment” (Scientific Reports, 2021)

What was measured:
R117H-CFTR = target: T1, R117H-CFTR (Homo sapiens, UniProt P13569, R117H); test: Ussing chamber transepithelial current, acute potentiation; assay type: cell-based
T1 construct: R117H-CFTR expressed in FRT cells

[1] = target: T2, cystic fibrosis transmembrane conductance regulator (CFTR) (Homo sapiens, UniProt P13569); test: Ussing chamber transepithelial current, concentration-response of acute potentiation; assay type: cell-based
T2 construct: endogenous CFTR in non-CF human nasal epithelial cells
T2 sequence (P13569 whole entry): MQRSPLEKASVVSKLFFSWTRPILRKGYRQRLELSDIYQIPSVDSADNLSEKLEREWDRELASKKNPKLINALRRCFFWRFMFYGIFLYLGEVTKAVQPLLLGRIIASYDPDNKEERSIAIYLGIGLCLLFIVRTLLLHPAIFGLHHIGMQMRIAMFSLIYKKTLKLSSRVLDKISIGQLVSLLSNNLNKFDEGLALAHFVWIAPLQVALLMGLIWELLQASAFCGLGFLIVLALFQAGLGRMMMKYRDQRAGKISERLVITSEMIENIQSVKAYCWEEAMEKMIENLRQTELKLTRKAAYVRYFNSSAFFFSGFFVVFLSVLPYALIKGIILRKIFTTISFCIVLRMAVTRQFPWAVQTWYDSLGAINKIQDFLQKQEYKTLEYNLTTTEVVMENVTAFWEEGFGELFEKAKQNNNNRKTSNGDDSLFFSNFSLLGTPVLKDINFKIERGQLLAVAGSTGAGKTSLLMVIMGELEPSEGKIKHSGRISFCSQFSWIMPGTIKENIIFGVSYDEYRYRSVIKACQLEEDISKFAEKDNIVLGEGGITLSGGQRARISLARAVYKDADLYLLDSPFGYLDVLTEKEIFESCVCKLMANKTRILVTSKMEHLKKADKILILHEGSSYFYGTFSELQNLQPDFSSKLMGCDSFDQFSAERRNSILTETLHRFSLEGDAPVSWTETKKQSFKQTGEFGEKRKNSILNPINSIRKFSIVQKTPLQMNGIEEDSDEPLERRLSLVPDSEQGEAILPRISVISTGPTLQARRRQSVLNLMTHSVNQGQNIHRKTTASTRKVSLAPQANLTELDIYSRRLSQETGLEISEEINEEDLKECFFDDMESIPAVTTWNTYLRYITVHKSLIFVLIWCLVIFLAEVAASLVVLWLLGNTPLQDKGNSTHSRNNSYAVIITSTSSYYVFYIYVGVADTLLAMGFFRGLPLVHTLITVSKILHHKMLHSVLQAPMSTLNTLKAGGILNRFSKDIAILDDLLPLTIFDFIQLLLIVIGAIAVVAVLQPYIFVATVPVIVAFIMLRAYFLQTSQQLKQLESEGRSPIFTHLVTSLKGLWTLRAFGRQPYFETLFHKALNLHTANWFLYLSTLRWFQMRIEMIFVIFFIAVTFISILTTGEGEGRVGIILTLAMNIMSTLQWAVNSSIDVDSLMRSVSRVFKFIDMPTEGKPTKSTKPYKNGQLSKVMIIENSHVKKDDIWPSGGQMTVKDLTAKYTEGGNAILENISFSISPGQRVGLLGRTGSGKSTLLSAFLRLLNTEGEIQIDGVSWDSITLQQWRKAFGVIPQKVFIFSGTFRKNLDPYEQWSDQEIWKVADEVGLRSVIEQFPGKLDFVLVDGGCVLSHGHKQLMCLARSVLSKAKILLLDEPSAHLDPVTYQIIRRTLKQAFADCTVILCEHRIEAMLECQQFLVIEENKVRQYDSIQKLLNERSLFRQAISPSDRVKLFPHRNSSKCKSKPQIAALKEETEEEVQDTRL

T1 sequence (P13569 whole entry R117H): as the sequence (P13569 whole entry) above, with R117H counted along it

Question: How did the “Ussing chamber transepithelial current, acute potentiation” value (R117H-CFTR) turn out when CC(C)(C)c1cc(C(C)(C)C)c(NC(=O)c2c[nH]c3ccccc3c2=O)cc1O [VX-770, ivacaftor] was run?
Answer: VX-445 and VX-770 did not exhibit the same high degree of synergy in potentiating R117H-CFTR

Question: Which “Ussing chamber transepithelial current, acute potentiation” value (R117H-CFTR) does the source give for Cc1nn(C)cc1S(=O)(=O)NC(=O)c1ccc(-n2ccc(OCC(C)(C)C(F)(F)F)n2)nc1N1C[C@@H](C)CC1(C)C [VX-445, elexacaftor] here?
Answer: We also found that VX-445 potentiates R117H-CFTR expressed in FRT cells

Question: And the EC50 [1]?
Answer: 1.5 ± 1.4 nM
